Experimental data published in publication PMC7055022, “A novel TLR7 agonist as adjuvant to stimulate high quality HBsAg-specific immune responses in an HBV mouse model” (Journal of Translational Medicine, 2020).

Molecular target: T1, human TLR7 (hTLR7) (Homo sapiens, UniProt Q9NYK1)
T1 sequence (Q9NYK1 27-1049): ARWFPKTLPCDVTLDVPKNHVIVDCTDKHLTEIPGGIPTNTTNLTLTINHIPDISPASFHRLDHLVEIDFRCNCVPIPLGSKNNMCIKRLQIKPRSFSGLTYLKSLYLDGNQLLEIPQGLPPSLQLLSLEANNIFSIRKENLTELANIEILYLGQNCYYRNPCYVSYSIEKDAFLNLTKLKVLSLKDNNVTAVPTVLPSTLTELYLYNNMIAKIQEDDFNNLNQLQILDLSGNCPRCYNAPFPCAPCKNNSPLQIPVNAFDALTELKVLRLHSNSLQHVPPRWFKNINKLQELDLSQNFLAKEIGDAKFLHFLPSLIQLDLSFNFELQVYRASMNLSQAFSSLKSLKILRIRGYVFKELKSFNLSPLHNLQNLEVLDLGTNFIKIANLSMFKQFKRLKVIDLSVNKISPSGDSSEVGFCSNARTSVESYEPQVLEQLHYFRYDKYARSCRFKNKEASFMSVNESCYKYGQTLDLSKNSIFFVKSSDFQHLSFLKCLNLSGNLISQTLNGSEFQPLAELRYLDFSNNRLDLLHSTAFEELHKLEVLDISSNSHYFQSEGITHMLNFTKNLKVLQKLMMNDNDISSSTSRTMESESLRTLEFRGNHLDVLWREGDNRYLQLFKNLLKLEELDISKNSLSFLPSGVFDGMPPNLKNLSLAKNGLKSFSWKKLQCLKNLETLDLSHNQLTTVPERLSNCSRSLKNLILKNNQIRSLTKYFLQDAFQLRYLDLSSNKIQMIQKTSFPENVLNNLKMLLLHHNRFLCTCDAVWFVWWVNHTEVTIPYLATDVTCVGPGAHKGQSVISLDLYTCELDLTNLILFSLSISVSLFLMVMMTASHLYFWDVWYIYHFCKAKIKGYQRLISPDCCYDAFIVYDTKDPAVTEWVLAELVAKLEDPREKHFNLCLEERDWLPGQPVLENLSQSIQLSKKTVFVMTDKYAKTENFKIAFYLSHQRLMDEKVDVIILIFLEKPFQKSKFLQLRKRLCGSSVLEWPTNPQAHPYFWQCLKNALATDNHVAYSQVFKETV
Test: HEK-Blue hTLR7 SEAP/NF-κB reporter assay (agonist; inactive in hTLR8 cells)
Type: cell-based

C=C(CC)C(=O)c1ccc(OCC(=O)NCc2ccc(Cn3c(O)nc4c(N)nc(OCCOC)nc43)cc2)c(Cl)c1Cl [compound 4, N-(4-((6-amino-8-hydroxy-2-(2-methoxyethoxy)-9H-purin-9-yl)methyl)benzyl)-2-(2,3-dichloro-4-(2-methylenebutanoyl)phenoxy)acetamide]
HEK-Blue hTLR7 SEAP/NF-κB reporter assay (agonist; inactive in hTLR8 cells): T7-EA induced more potent SEAP reaction than T7 in HEK-Blue hTLR7 reporter cells
